Consider two compounds from EP4775580A1, “COMPOUND, PHARMACEUTICAL COMPOSITION COMPRISING SAME, AND USE THEREOF” (Euregen Biopharma Co., Ltd., priority 2023, dated 2025).

Where two headings read alike, the source gives them in different places. Bounds are passed on as bounds.

As a reminder, the IC50 is the concentration that inhibits the measured activity by half.

One assay has as its target T1, hERG potassium channel (Homo sapiens, UniProt Q12809).
T1 construct: expressed in transfected cells; host or cells: HEK293 (HEK-293-hERG)
Kind of assay: Inhibition of hERG current, manual whole-cell patch-clamp in HEK293 cells stably transfected with hERG. In kind it is cell-based. The text has this:
• 1. Objective: To evaluate the inhibitory effect of test compounds on hERG current in HEK293 cells stably transfected with the hERG potassium channel using manual patch-clamp technique. • 2. Experimental Materials: The test compound was Compound 3 prepared according to the examples of the present invention; the positive control compound SNDX-5613 was purchased from Chengdu Zhihui Zhongxin Biomedical Co., Ltd.; HEK293 cells were obtained from Procell (Cat. #CL-0001). […]
Following establishment of the whole-cell recording configuration, the holding potential was maintained at -80 mV. […] Once the recorded hERG current stabilized, compounds were administered via continuous extracellular perfusion from low to high concentrations (0.3, 1, 3, 10, and 30 µmol/L). […]
Data Acquisition and Analysis: Experimental data were acquired using Clampex software and analyzed using Clampfit software. First, the current following each compound concentration was normalized to the control current ((Peak tail current (compound))/(Peak tail current (blank))) × 100 [formula] , then the inhibition rate for each compound concentration was calculated (1−(Peak tail current (compound))/(Peak tail current (blank))) × 100 [formula] . […]

Assay [1] addresses T2, wild-type Menin protein (Menin-WT) (Homo sapiens, UniProt O00255).
T2 sequence (O00255 1-615 isoform O00255-1): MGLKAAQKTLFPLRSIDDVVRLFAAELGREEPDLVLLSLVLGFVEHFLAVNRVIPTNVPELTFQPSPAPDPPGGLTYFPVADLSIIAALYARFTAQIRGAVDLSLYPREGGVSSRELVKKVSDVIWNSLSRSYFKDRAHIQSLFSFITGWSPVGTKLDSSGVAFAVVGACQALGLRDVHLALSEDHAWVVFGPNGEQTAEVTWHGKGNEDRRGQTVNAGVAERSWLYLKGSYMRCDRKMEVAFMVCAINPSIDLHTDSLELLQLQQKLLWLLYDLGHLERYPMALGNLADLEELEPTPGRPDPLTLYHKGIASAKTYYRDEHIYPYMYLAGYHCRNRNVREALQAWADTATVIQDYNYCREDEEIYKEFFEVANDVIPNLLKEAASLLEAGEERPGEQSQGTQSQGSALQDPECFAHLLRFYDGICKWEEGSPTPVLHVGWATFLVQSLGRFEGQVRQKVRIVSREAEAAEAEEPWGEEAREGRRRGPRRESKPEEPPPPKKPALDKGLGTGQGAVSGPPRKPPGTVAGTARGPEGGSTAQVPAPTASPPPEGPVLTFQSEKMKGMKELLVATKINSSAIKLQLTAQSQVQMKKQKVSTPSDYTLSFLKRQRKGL
Kind of assay: Fluorescence polarization assay of Menin binding to MLL peptide, wild type. To be noted: FP, 8 nM Menin, 4 nM MLL peptide. An excerpt: • 1. Objective: To evaluate the inhibitory activity of compounds against wild-type Menin protein (Menin-WT) and its mutant variants (Menin-M327V, Menin-M327I, Menin-T349M, Menin-S160T, Menin-S160C, Menin-G331R, and Menin-G331D). • 2. Experimental Principle: The experiment employed fluorescence polarization (FP) to detect the binding of wild-type Menin protein and its mutant variants to MLL peptide. In the absence of inhibitors, binding of wild-type Menin protein and its mutant variants to MLL peptide generates a high FP signal; upon addition of inhibitors, the binding between Menin proteins and MLL peptide is disrupted, resulting in a low FP signal. • 3. Experimental Materials: Final concentration of wild-type Menin protein and its mutant variants: 8 nM; final concentration of MLL peptide: 4 nM. Assay buffer: 50 mM Tris-HCl (pH 8.0), 120 mM NaCl, 0.005% CA-630, 2 mM DTT. • 4. […] The plate was centrifuged at 1000 rpm for 60 seconds. Subsequently, 10 µL of MLL peptide was added to each assay well. The plate was centrifuged at 1000 rpm for 60 seconds and sealed with a sealing membrane. After incubation at 23°C for 60 minutes, the plate was read using a PerkinElmer Envision reader. Data Analysis: [formula]
Curve fitting: XLFIT software was used for curve fitting, employing a four-parameter logistic model with percent inhibition versus log(compound concentration) as variables.
For orientation: In fluorescence polarisation assays a small probe gives low polarisation when free and higher when bound to something large.

T1 sequence (Q12809 whole entry): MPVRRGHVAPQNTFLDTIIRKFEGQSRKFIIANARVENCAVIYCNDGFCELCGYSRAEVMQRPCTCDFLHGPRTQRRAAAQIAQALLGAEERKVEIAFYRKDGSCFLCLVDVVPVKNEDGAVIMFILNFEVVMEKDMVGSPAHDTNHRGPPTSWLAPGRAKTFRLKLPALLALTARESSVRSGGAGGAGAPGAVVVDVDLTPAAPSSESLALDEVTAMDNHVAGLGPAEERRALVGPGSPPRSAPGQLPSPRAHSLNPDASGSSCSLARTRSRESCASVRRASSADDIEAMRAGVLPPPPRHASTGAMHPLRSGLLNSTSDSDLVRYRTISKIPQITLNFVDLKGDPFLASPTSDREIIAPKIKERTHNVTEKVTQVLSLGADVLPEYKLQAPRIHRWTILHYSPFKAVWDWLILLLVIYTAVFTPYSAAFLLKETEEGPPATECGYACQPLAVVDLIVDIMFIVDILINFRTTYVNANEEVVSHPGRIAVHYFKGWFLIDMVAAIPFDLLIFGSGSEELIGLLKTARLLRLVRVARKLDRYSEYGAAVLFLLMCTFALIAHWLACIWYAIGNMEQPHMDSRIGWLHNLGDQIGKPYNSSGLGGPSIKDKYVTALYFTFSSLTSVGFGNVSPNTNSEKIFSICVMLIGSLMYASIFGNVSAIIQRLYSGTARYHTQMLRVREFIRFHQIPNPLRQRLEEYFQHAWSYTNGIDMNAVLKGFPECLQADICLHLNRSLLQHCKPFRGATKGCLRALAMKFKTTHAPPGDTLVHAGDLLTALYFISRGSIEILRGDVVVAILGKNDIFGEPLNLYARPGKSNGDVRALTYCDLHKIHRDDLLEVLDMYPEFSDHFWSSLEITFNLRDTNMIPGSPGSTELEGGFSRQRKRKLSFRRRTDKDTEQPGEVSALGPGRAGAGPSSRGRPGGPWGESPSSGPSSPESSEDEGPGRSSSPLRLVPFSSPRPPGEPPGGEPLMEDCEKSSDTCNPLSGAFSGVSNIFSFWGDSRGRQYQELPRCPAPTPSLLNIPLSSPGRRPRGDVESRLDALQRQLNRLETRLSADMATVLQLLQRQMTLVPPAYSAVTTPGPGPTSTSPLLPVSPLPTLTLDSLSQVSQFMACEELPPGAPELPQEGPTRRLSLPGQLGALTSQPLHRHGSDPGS

For `CCN(C(=O)c1cc(F)ccc1N1CCN([C@@H]2CCN([C@H](CCCN(C)CCOC)C(C)C)C2)c2ncncc21)C(C)C` [Example 3], the IC50 against hERG potassium channel was over 30000 nM; in assay [1], 13 nM.

Take `CCN(C(=O)c1cc(F)ccc1Oc1cncnc1N1CC2(CCN(C[C@H]3CC[C@H](NS(=O)(=O)CC)CC3)CC2)C1)C(C)C` [SNDX-5613, revumenib]: the half-inhibitory concentration (IC50) on hERG potassium channel (HEK293-hERG cells, manual patch-clamp, 0.3-30 µmol/L, room temperature, read-out: IC50 (hERG tail current)) is 7590 nM; in assay [1], 17.6 nM.
